From patent publication US4146615A, “Chrysanthellum plant extract” (Laboratoires Sarget, priority 1977, dated 1979) come the findings set out here.

The subject of data set [1] is male mice of the Swiss EOPS strain. The data set is described as follows: Analgesic activity, P.B.Q. test (chemical stimulus). It is filed as in vivo, mouse. Particulars: 10 minutes before P.B.Q., range in parentheses. As for the experimental part:
Experiments were performed on male mice of the Swiss EOPS strain and two stress-producing stimuli were used: the P.B.Q. test (chemical stimulus) and the hot plate test (thermal stimulus).
An aqueous alcoholic solution of 0.02% phenyl p-benzoquinone (P.B.Q.) was administered i.p. to the animals; at the end of 5 minutes this induced abdominal contractions and extension of the mice's hind paws.
The doses are expressed in mg/kg of animal weight.

Data set [2] shares this test system. As to the kind of experiment: Analgesic activity, hot plate test (thermal stimulus). It counts as in vivo, mouse. Particulars: 56° C., reaction time ≥150% of reference time. As for the experimental part: Experiments were performed on male mice of the Swiss EOPS strain and two stress-producing stimuli were used: the P.B.Q. test (chemical stimulus) and the hot plate test (thermal stimulus). […] The doses are expressed in mg/kg of animal weight.
For orientation: Hot-plate and tail-flick tests time the reaction to a heat stimulus.

Data set [3] relates to edema of the rat ear induced by croton oil. The data set is described as follows: Local anti-inflammatory action, edema of the rat ear induced by croton oil (Le Douarec). It is filed as in vivo. Particulars: topical. As to the method:
This was determined by the technique of edema of the rat ear induced by croton oil according to the method of Le Douarec. The irritant mixture was prepared from two solutions: solution A which contained 10 ml of pyridine, 2.5 ml of water and 12.5 ml of ethyl acetate and in which the test sample was dissolved; solution B, which contained 1 ml of croton oil and 24 ml of ethyl acetate. The two solutions A and B were mixed together before use. Edema was induced by swabbing the ear with a cotton wad moistened with the irritant mixture (about 1 ml of mixture per rat).

In the next data set the test system is constraint ulcer. As to the kind of experiment: Anti-ulcer activity, constraint ulcer test (Bonfils). It counts as in vivo, rat. The following applies: 50 mg/kg PO. As to the method:
The anti-ulcer activity was determined in female EOPS Wistar rats in the constraint ulcer test by the technique of Bonfils.
After 24 hours without food the rats, lightly anesthetized with ether, were immobilized in pliable metal-lattice corselets. The paws were tied together in pairs. The rats were suspended in their cages so that they could not touch any point of support. Just before anesthesia the test samples were administered PO in suspension in gum julep in a volume of 0.5 cc/100g. The animals were left constrained for 24 hours and then killed with ether. The stomachs were removed and cut along the greatest curvature. They were stretched out on cork slabs covered with glazed paper to facilitate examination and photographing. A scale of 0 to 4 was used for the number and dimension of ulcerations (0 for no ulceration, 4 for more than 4 ulcers or a perforation).

In another data set the test system is Edema from Carrageenan. As to the kind of experiment: Anti-inflammatory activity, edema test with carrageenan. It counts as in vivo, rat. Particulars: i.p. As for the experimental part: This effect was determined in the edema test with carrageenan in male EOPS Wistar rats. A volume of 0.1 ml of a suspension of 0.5% carrageenan in physiologic serum was injected into the muscle bundle of the metatarsal region of the animal's hind paws. The test sample was administered i.p. in neutralized physiologic solution simultaneously with the carrageenan. The edema was measured by plethysmometry 2, 3 and 6 hours after the administration of carrageenan.

For another data set, the system named is EOPS mouse. Particulars: Mice. As for the experimental part:
Acute toxicity was determined in the EOPS mouse, the standard Wistar rat and the EOPS Wistar rat for several methods of administration. The products were administered orally in suspension in gum julep, and i.p. and i.v. in a physiological solution neutralized with NaOH.
In all cases the doses are expressed in mg per kg of animal weight.

The subject of data set [4] is male standard Wistar rats. The data set is described as follows: Intoxication by slow IV perfusion in the anesthetized rat. As to the method: The carotid pressure, the heart rate, the respiration and the electrocardiogram were recorded on lead DII. […] The products were administered in solution in physiological serum. The solutions were neutralized with bicarbonate.

The test system of another data set is EOPS Wistar rat. The data set is described as follows: Acute toxicity in the EOPS Wistar rat (Litchfield and Wilcoxon). It counts as in vivo. Particulars: EOPS Wistar rats, IP.
For a further data set, the system named is capillary permeability. It is filed as in vivo, rat. As for the experimental part: The capillary permeability was determined by the method of […]., and […]., Arch. Inter. Physiol. […] The products were administered i.p. for capillary permeability, the ED 50 as well as the regression analysis equation expressing the effect on the capillary permeability as a function of the dose expressed in mg/kg.

The next data set concerns capillary resistance. The data set is described as follows: Capillaroprotector effects, capillary resistance. It counts as in vivo, rat. As for the experimental part:
The capillary resistance was determined by a variant of the method of Charlier R., Hosslet A., and Colot M., Arch. Inter. Physiol. Biochem., 71, 1-45 (1963) in Sprague Dowley EOPS rats. The products were administered i.p.

Where two headings read alike, the source gives them in different places.

With `CCCCC1C(=O)N(c2ccccc2)N(c2ccccc2)C1=O` [Phenylbutazone], the ED50 in data set [1] (Mus musculus, ip, read-out: P.B.Q. Test ED 50) turned out to be 14 mg/kg; in [2] (Mus musculus, ip, read-out: Hot Plate Test AD 50) it was 125 mg/kg.

Consider `CC(=O)Oc1ccccc1C(=O)O` [Aspirin], for which the “% of Activity (inhibition of the edema)” value is on record as 27% in [3] (25 mg/ml of mixture) and 65% in data set [3] (50 mg/ml of mixture).

For β-aescine, the “% of Anti-Ulcer Activity” value in the data set with constraint ulcer is reported as 13%. In addition, the “P.B.Q. Test ED 50” value in data set [1] (i.p.) is reported as 2.7 (1.7-7.5) mg/kg. Further, the “Hot Plate Test AD 50” value in data set [2] (i.p.) was 4.5 mg/kg. Besides, the “Edema from Carrageenan ED 50” value with Edema from Carrageenan (2 hours after carrageenan) came out at 6.5 mg/kg; in the data set on Edema from Carrageenan (3 hours after carrageenan) it was 8.5 mg/kg; with Edema from Carrageenan (6 hours after carrageenan), 7.5 mg/kg. Further, the “MTD (maximum tolerated dose)” value in the data set on EOPS mouse (IP) is listed as 2.5 mg per kg; in the data set with EOPS mouse (IV), less than 1.25 mg per kg; in the data set with EOPS Wistar rat, less than 6.25 mg per kg. Moreover, in data set [4] (1 mg/kg/min), the arterial pressure result is “a slight hypotension was observed at the beginning of the perfusion; the arterial pressure next increased, then abruptly dropped to end rapidly in death”. Moreover, in data set [4] (up to 0.1 mg/kg/min), the “arterial pressure and heart and respiratory rates” value was “tended to increase”.

As to Sodium escinate, the “Capillary Permeability ED 50” value in the data set on capillary permeability (i.p., standard Wistar rat, range in parentheses) is 12 (10-15) mg/kg. In the data set on capillary permeability (rat, not told), the “Capillary permeability regression equation, constant term” value is given as 159 and the “Capillary permeability regression equation, slope (coefficient of X)” value is -6.50. Further, in the data set with capillary resistance (dose 5 mg/kg i.p.), the “Capillary Resistance activity” value turned out to be 26 ± 15 ucmHg/hour and the “Capillary Resistance, % of animals with activity ≥25” value amounted to 60%. Further, in the data set on capillary resistance (dose 10 mg/kg i.p.), the “Capillary Resistance activity” value is listed as 78 ± 24 ucmHg/hour and the “Capillary Resistance, % of animals with activity ≥25” value is recorded as 100%.
